From US20230047825A1, “ANTIMICROBIAL PEPTIDES” (priority 2019, published 2023)
In brackets after ≈: the same amount, converted by molar mass. Like-named read-outs stand apart in the source and are kept apart here. Marks after values point to notes of the source that are not given here. Where a SMILES comes first, the peptide text is derived from it.

Tests used:
[1] = tested on: Pseudomonas aeruginosa NCTC 13437; test: Antibacterial activity assay (broth microdilution MIC); assay type: cell-based; details: PA13437, in µg/mL
VRE12201 = test: as above; assay type: cell-based, Enterococcus faecalis; details: medium and unit inferred
Source text: Antibacterial activity assay.
The bacterial strains used are as in the above examples. A table of strains is provided below to aid understanding.

human red blood cells = test: Haemolysis assay; details: red cells of human, 1 h
How it was run: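 Peptide titrations in PBS incubated with fresh human red blood cells for 1 h at 37 C; supernatant OD550 read after removing intact cells. % haemolysis scaled between PBS-only (0%) and 0.1% Triton-X-100 (100%) controls; mean and SE of three biological replicates.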

[2] = tested on: Pseudomonas aeruginosa PA01; test: Antibacterial activity assay (broth microdilution MIC); assay type: cell-based
[3] = tested on: EMR Staphylococcus aureus-16 (EMRSA-16); assay type: cell-based; details: EMRSA16
HEK293 = test: Cytotoxicity assay (XTT); assay type: cell-based, human
How it was run: (§1)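 Cells seeded 24 h in EMEM with 10% FBS and NEAA at 37 °C, 10% CO2, then medium replaced with peptide dilutions. After a further 24 h exposure, viability read by XTT tetrazolium staining.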

[4] = tested on: EMR Staphylococcus aureus-15 (EMRSA-15); assay type: cell-based
[5] = tested on: Acinetobacter baumannii ATCC 17978; assay type: cell-based; details: in µg/mL; for MIC, Stability in serum (MH): Ab17978
[6] = tested on: Escherichia coli NCTC 12923; assay type: cell-based
HeLa = test: Cytotoxicity assay (XTT); assay type: cell-based, human; design: Toxicity HeLa: unit not given beside the values
How it was run: as §1

[7] = tested on: VR Enterococcus faecium NCTC 12204; test: Antibacterial activity assay (broth microdilution MIC); assay type: cell-based; details: VRE12204, in µg/mL
[8] = tested on: MS Staphylococcus aureus ATCC 9144; assay type: cell-based; details: MSSA9144
[9] = tested on: Acinetobacter baumannii AYE; assay type: cell-based
[10] = tested on: VS Enterococcus faecalis NCTC 775; test: Antibacterial activity assay (broth microdilution MIC); assay type: cell-based
Klebsiella pneumoniae M6 = assay type: cell-based
[11] = tested on: Klebsiella pneumoniae NCTC 13368; assay type: cell-based; details: KP13368, in µg/mL
[12] = untitled table, medium/unit not given, values match RPMI of Table 2
[13] = medium and unit not given, in µg/mL
[14] = untitled table, medium/unit inferred, values match RPMI of Table 2
[15] = untitled table, medium/unit not given, values match RPMI of Table 2, in µg/mL

## CC(C)C[C@H](NC(=O)[C@H](Cc1ccc(O)cc1)NC(=O)[C@H](Cc1c[nH]cn1)NC(=O)[C@@H](NC(=O)[C@H](CC(C)C)NC(=O)[C@H](C)NC(=O)[C@H](C)NC(=O)[C@H](CCCNC(=N)N)NC(=O)CNC(=O)[C@@H](NC(=O)[C@H](Cc1c[nH]cn1)NC(=O)[C@H](CCCNC(=N)N)NC(=O)CNC(=O)[C@@H](NC(=O)[C@H](Cc1c[nH]cn1)NC(=O)[C@H](C)NC(=O)[C@H](C)NC(=O)[C@H](CCCNC(=N)N)NC(=O)[C@H](CCCNC(=N)N)NC(=O)[C@H](Cc1ccccc1)NC(=O)[C@H](Cc1ccccc1)NC(=O)[C@H](CO)NC(=O)CNC(=O)[C@H](Cc1c[nH]c2ccccc12)NC(=O)CN)C(C)C)C(C)C)[C@@H](C)O)C(N)=O [Pleurocidin-KR] (H-GWGSFFRRAAHVGRHVGRAALTHYL-NH2; N-terminus assumed)
[1]; No serum
  MIC, Stability in serum (MH): 4
[1]; Serum (10% fetal bovine serum)
  MIC, Stability in serum (MH): 32*
[1]; medium and unit not given
  MIC on initial panels: 8
[1]; [12]
  MIC: >32
VRE12201
  MIC on initial panels: 32 µg/mL (≈ 11.3 µM)
Human red blood cells
  Toxicity HC50, Peptide concentration: >400 µg/mL
[2]; No serum, in µg/mL
  MIC, Stability in serum (MH): 4
[2]; Serum (10% fetal bovine serum), in µg/mL
  MIC, Stability in serum (MH): >128
[2]; [13]
  MIC on initial panels: 4
[2]; [14]
  MIC: > 32 µg/mL
[3]; [13]
  MIC on initial panels: 4
[3]; [14]
  MIC: 8 µg/mL (≈ 2.83 µM)
HEK293; unit not given
  Toxicity HEK293: 40.1 ± 4.1
HEK293; value printed in parentheses
  Toxicity HEK293 (EC50), Peptide concentration: (40.1 ± 4.1) μg/ml
[4]; EMR -15 (EMRSA-15)
  MIC, Peptide concentration: 4 (4) μg/ml
[4]; EMRSA15, medium and unit inferred
  MIC on initial panels: 4 µg/mL (≈ 1.42 µM)
[4]; EMRSA15, untitled table, medium/unit inferred, values match RPMI of Table 2
  MIC: 4 µg/mL (≈ 1.42 µM)
[5]; AB17978, medium and unit not given
  MIC on initial panels: 1
[5]; AB17978, untitled table, medium/unit not given, values match RPMI of Table 2
  MIC: 8
[5]; No serum
  MIC, Stability in serum (MH): 2
[5]; Serum (10% fetal bovine serum)
  MIC, Stability in serum (MH): 2
[6]; EC12923, No serum
  MIC, Stability in serum (MH): 2 µg/mL (≈ 0.709 µM)
[6]; EC12923, Serum (10% fetal bovine serum)
  MIC, Stability in serum (MH): 1 µg/mL (≈ 0.354 µM)
[6]; EC12923, medium and unit not given, in µg/mL
  MIC on initial panels: 1
[6]; EC12923, untitled table, medium/unit not given, values match RPMI of Table 2, in µg/mL
  MIC: 16
[6]; NCTC 12923
  MIC, Peptide concentration: 16 µg/mL (≈ 5.67 µM)
HeLa; unit not given
  Toxicity HeLa: 30.7 ± 2.6
HeLa; value printed in parentheses
  Toxicity HeLa (EC50), Peptide concentration: (30.7 ± 2.6) μg/ml
[7]; medium and unit not given
  MIC on initial panels: 4
[7]; [12]
  MIC: 16
[8]; medium and unit inferred
  MIC on initial panels: 2 µg/mL (≈ 0.709 µM)
[8]; [15]
  MIC: 4
[9]; AYE, No serum
  MIC, Stability in serum (MH): 2 µg/mL (≈ 0.709 µM)
[9]; AYE, Serum (10% fetal bovine serum)
  MIC, Stability in serum (MH): 2 µg/mL (≈ 0.709 µM)
[9]; AYE, medium and unit not given, in µg/mL
  MIC on initial panels: 1-2
[9]; AYE, untitled table, medium/unit not given, values match RPMI of Table 2, in µg/mL
  MIC: 8-16
[9]; RPMI (value in parentheses)
  MIC, Peptide concentration: 8 to 16 µg/mL
[10]; Mueller-Hinton broth
  MIC, Peptide concentration: 16 (NG) μg/ml
[10]; VSE775, medium and unit not given, in µg/mL
  MIC on initial panels: 16
Klebsiella pneumoniae M6
  MIC, Peptide concentration: 2 µg/mL (≈ 0.709 µM)
Klebsiella pneumoniae M6; No serum
  MIC, Stability in serum (MH): 4 µg/mL (≈ 1.42 µM)
Klebsiella pneumoniae M6; Serum (10% fetal bovine serum)
  MIC, Stability in serum (MH): 2 µg/mL (≈ 0.709 µM)
Klebsiella pneumoniae M6; [13]
  MIC on initial panels: 2
Klebsiella pneumoniae M6; [15]
  MIC: 32
[11]; No serum
  MIC, Stability in serum (MH): 2
[11]; Serum (10% fetal bovine serum)
  MIC, Stability in serum (MH): 4
[11]; medium and unit not given
  MIC on initial panels: 2-4
[11]; [12]
  MIC: 32
